Patent publication US12594339B2, “Lipid prodrugs of JAK inhibitors and uses thereof” (Seaport Therapeutics, Inc., priority 2019, dated 2026)

Columns and labels:
[1] = tested on: plasma supplemented with lipoprotein lipase (LPL); test: In vitro release of therapeutic agent from prodrugs in plasma supplemented with lipoprotein lipase; assay type: in vitro ADME; details: rat and/or human plasma supplemented with LPL; for In vitro hydrolysis profile: conversion to monoglyceride form / In vitro hydrolysis profile: further conversion products: 37° C., 0-180 min
Description: In order to probe the release of free drug from TG prodrugs in the systemic circulation, prodrugs are incubated with plasma (rat, mouse, dog, pig or human) supplemented with lipoprotein lipase (LPL, 200 IU/ml). LPL is a key enzyme required for the hydrolysis of lipoprotein associated TG in the systemic circulation and is therefore expected to be a key contributor to lipolysis of the re-esterified drug-TG construct in plasma, largely via liberation of fatty acids in the sn-1 and the sn-3 position of the TG-mimetic, prior to drug release from the 2′ position via esterase hydrolysis. […] is tethered to the luminal surface of vascular endothelial cells under physiological conditions. In the current in vitro studies, plasma is therefore supplemented with LPL to better reflect the in vivo situation.
To start hydrolysis, 10 μl of LPL solution (10,000 IU/ml) was added to a mixture of 10 μl of prodrug solution (1 mg/ml dissolved in acetonitrile) and 500 μl of blank plasma. The mixture was incubated at 37° C. Samples (20 μl) of the incubation solution were taken at 0, 5, 15, 30, 60, 90, 120 and 180 minutes post-incubation and added to 180 μl of MeCN to stop lipolysis. The mixture was vortexed and centrifuged at 4500×g for 5 minutes to precipitate proteins prior to analysis. The supernatant was analyzed by HPLC-MS/MS for the potential products (MG form, acid form, and free drug) of prodrug hydrolysis.
The in vitro hydrolysis profile of selected prodrug compounds was determined in rat and/or human plasma supplemented with LPL. […] The acid intermediate was not observed for prodrug I-5. The acid intermediates are believed to have the structures shown in Table 6, below, based on HPLC-MS data.

[2] = target: T1, porcine pancreatic lipase (Sus scrofa, UniProt P00591); test: In vitro hydrolysis by porcine pancreatic lipase in simulated intestinal micellar solution; assay type: in vitro ADME; details: for In vitro hydrolysis: acid intermediates: HPLC-MS; for In vitro hydrolysis: conversion to monoglyceride form / In vitro hydrolysis: fate of the monoglyceride: simulated intestinal micellar solution, 37° C., 0-180 min
T1 construct: dispersion of 1 g porcine pancreatin in 5 ml of lipolysis buffer; from tissue; host or cells: porcine pancreatin (pancreas extract), supernatant after centrifugation
T1 sequence (P00591 1-450): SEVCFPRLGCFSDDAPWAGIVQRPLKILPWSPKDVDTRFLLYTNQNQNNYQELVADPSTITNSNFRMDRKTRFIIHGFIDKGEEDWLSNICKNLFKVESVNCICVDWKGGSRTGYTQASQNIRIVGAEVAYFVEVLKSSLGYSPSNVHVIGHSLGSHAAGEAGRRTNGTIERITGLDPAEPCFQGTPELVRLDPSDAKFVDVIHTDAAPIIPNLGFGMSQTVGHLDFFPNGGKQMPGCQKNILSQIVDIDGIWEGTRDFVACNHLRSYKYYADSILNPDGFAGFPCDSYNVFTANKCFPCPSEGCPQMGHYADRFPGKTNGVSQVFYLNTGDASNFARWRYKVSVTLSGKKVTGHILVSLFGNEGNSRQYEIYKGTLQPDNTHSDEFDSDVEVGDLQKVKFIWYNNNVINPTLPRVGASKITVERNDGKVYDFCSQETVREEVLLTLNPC
T1 sequence (P02703 23-112 partner): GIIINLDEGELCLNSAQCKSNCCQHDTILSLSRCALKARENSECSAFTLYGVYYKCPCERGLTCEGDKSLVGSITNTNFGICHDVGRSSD
Description: Hydrolysis of test compounds in vitro was performed via incubation with porcine pancreatic lipase. This provides a more reproducible source of pancreatic enzymes, facilitates enhanced experimental throughput, and is also a greater challenge than collected rat enzymes (as described below, since enzyme activity in rat intestinal fluid is low). Briefly, pancreatic lipase solution was prepared prior to the hydrolysis experiment by dispersion of 1 g porcine pancreatin in 5 ml of lipolysis buffer and 16.9 μL of 0.5 M NaOH. The suspension was mixed well and centrifuged at 3500 rpm for 15 minutes at 5° C. to provide a supernatant. An amount of 1000 mL of lipolysis buffer was prepared with 0.474 g of tris-maleate (2 mM), 0.206 g of CaCl2·H2O (1.4 mM) and 8.775 g of NaCl (150 mM) adjusted with NaOH to pH 6.5. To assess the potential for prodrug hydrolysis in the intestine, 20 μL of prodrug solution (1 mg/mL dissolved in acetonitrile), 900 μL of simulated intestinal micellar solution [prepared with 0.783 g of NaTDC (3 mM) and 0.291 g of phosphatidyl choline (0.75 mM) in 500 mL lipolysis buffer] and 100 μL of enzyme solution were incubated at 37° C. 20 μL samples of the incubation solution were taken at 0, 5, 10, 15, 30, 60, 90, 120 and 180 minutes post incubation and added to 180 μL of MeCN to stop lipolysis. The mixture was vortexed and centrifuged at 5000 rpm for 5 minutes to precipitate proteins prior to analysis. The supernatant was analyzed by HPLC-MS for residual compound concentrations, and the potential products of compound hydrolysis analyzed.
On incubation with digestive enzymes, the monoglyceride forms of the prodrugs are formed very rapidly. The stability in simulated intestinal conditions is therefore better assessed by the stability of the monoglyceride form that is generated by the initial digestion process. The monoglyceride form should remain intact to be absorbed and re-esterified in the enterocyte prior to entry into the lymphatics. A comparison of the stability profiles of the monoglyceride forms of test compounds during in vitro incubation with porcine pancreatic lipase (or freshly collected rat bile and pancreatic fluid (BPF), as described below) was used to evaluate the influence of linker structure on the stability of the monoglyceride intermediates.

[3] = Lymphatic transport assay in mesenteric lymph-duct cannulated rats; assay type: in vivo, rat; details: total tofacitinib related compound (lymph hydrolysed before assay), intraduodenal infusion, anaesthetised mesenteric lymph-duct cannulated rats, lymph collected up to 8 h
Description: In order to assess the lymphatic transport of disclosed lipid prodrugs in rats, the mesenteric lymph ducts of the rats used in this study were cannulated to allow continual collection of mesenteric lymph. Lipid formulations containing the compound of interest were then administered to the animals, lymph was collected, and drug concentrations in the lymph samples were quantified.
Lipid-based formulations of the compounds of the invention or control compounds were prepared as previously described (Trevaskis, N. L. et al., Pharmaceutical Research, 2005, 22(11), 1863-1870, WO 2016/023082, and WO 2017/041139, hereby incorporated by reference).
In brief, either 1 or 2 mg of test prodrug, 40 mg oleic acid and 25 mg Tween 80 were mixed in a glass vial and incubated at 37° C. for 12-18 h to equilibrate. An aqueous phase consisting of 5.6 ml phosphate buffered saline (PBS, pH 7.4) was subsequently added to the lipid phase (tofacitinib was dissolved in PBS for the preparation of tofacitinib-containing formulations) and the formulation emulsified by ultrasonication with a Misonix XL 2020 ultrasonic processor (Misonix, Farmingdale, NY, USA) equipped with a 3.2-mm microprobe tip running at 30% of the maximal amplitude of 240 μm and a frequency of 20 kHz for 2 min at room temperature. Doses for administering to more than one animal can be prepared in one batch by suitably increasing the quantities given above. Drug/prodrug concentrations in all formulations were verified using HPLC-MS.
Male Sprague-Dawley (SD) rats were selected for the lymphatic transport studies. Rats (typically 240-320 g) were maintained on a standard diet and fasted overnight with free access to water prior to experiments.
Anesthetized rats were placed on a heated pad at 37° C. and cannulas inserted into the duodenum (for formulation administration and rehydration), mesenteric lymph duct (for lymph collection), and carotid artery (in cases where blood collection was conducted). Post-surgery, rats were re-hydrated for 0.5 h via intraduodenal infusion of normal saline at 2.8 mL/h. The lipid formulations were infused into the duodenum at 2.8 mL/h for 2 h after which, normal saline was infused at 2.8 mL/h for the remainder of the experiment. Lymph was continuously collected for up to 8 h into pre-weighed Eppendorf tubes containing 10 μL of 1,000 IU/mL heparin. The collection tubes were changed hourly and lymph flow was measured gravimetrically. Aliquots of hourly lymph samples were stored at −20° C. prior to assay.
For most compounds, drug concentration in lymph is expressed as total drug and includes free drug and drug associated with different glycerides. Lymph samples were first treated with a lipase or other appropriate conditions to liberate free active agent prior to measurement of active agent levels in the lymph. Treatment with a lipase or other hydrolysis conditions liberates free active agent from any corresponding re-esterified glycerides. Porcine pancreatic lipase is appropriate for this purpose. Alternatively, hydrolysis with 0.5 M NaOH may be used.
For certain compounds, drug concentration was measured for the intact lipid prodrug specifically, without exposing the lymph samples to hydrolysis conditions.
Transport of compounds into lymph during each hourly collection period was calculated from the product of the volume of lymph collected and the measured concentrations in lymph. For fluorescent or fluorescently-labelled compounds, the concentrations of total compound may be measured by fluorescence spectroscopy without hydrolysis.
Table 5 summarizes lymphatic transport of total tofacitinib related compound (% of administered dose) following intraduodenal infusion to anaesthetised, mesenteric lymph-duct cannulated rats. Data are presented as mean±SD when n≥3 or mean± range when n=2. […]

Compound | In vitro hydrolysis profile: conversion to monoglyceride form [1] | In vitro hydrolysis profile: further conversion products [1] | In vitro hydrolysis profile: acid intermediate ([1]; HPLC-MS) | In vitro hydrolysis: acid intermediates [2] | In vitro hydrolysis: conversion to monoglyceride form [2] | In vitro hydrolysis: fate of the monoglyceride [2] | Cumulative lymphatic transport % dose [3]
CCCCCCCCCCCCCCCC(=O)OCC(COC(=O)CCCCCCCCCCCCCCC)OC(=O)CC(C)CC(=O)OC(C)n1ccc2c(N(C)[C@H]3CN(C(=O)CC#N)CC[C@H]3C)ncnc21 (stereo partly drawn) [I-5, 1-(1,3-bis(palmitoyloxy)propan-2-yl) 5-(1-(4-(((3R,4R)-1-(2-cyanoacetyl)-4-methylpiperidin-3-yl)(methyl)amino)-7H-pyrrolo[2,3-d]pyrimidin-7-yl)ethyl) 3-methylpentanedioate] | rapidly converted into their monoglyceride form | further conversion to tofacitinib and an acid intermediate | not observed | not observed | rapidly converted to the prodrug's monoglyceride form | converted to free parent tofacitinib over time | D (lymphatic transport assay result of less than 0.05% (<0.05%))
CCCCCCCCCCCCCCCC(=O)OCC(COC(=O)CCCCCCCCCCCCCCC)OC(=O)CC(C)CCCCCCCC(C)C(=O)n1ccc2c(N(C)[C@H]3CN(C(=O)CC#N)CC[C@H]3C)ncnc21 (stereo partly drawn) [I-6, 2-((12-(4-(((3R,4R)-1-(2-cyanoacetyl)-4-methylpiperidin-3-yl)(methyl)amino)-7H-pyrrolo[2,3-d]pyrimidin-7-yl)-3,11-dimethyl-12-oxododecanoyl)oxy)propane-1,3-diyl dipalmitate] | rapidly converted into their monoglyceride form | further conversion to tofacitinib and an acid intermediate |  | not observed | rapidly converted to the prodrug's monoglyceride form | converted to free parent tofacitinib over time | B (lymphatic transport assay result between 1% and 10% (1%-10%))
